Where two headings read alike, the source gives them in different places.

For data set [1], the system named is Mycosphaerella graminicola; anamorph: Septoria tritici. Kind of data set: Fungicidal activity: leaf blotch of wheat (SEPTTR), wheat seedlings. The data set is classed as in vivo. The conditions noted are these: Zymoseptoria tritici. In outline: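 Percent control derives from disease severity on treated versus untreated first leaves, rated 0–100% when symptoms were fully expressed on untreated plants. Yuma seedlings were inoculated with S. tritici spores either before or after spraying to run-off. The spray was acetone solution diluted 1:9 in water with 110 ppm Triton X-100. Infection took place in 100% RH dew chambers, then a 20 °C greenhouse.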

Data set [2] deals with Puccinia triticina; synonym: Puccinia recondita f. sp. tritici. Briefly: Fungicidal activity: wheat brown rust (PUCCRT), wheat seedlings. The data set is classed as in vivo. Put shortly: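 Wheat (Yuma) seedlings at first-leaf stage, inoculated with Puccinia triticina spores before or after treatment, held overnight in dark dew room at 22° C, 100% RH, then greenhouse at 24° C. Acetone solutions diluted with nine volumes water containing 110 ppm Triton X-100, sprayed to run-off. Percent disease control derived from severity (0–100%) relative to untreated plants.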

Data set [3] shares this test system. Kind of data set: Fungicide mobility (dropline mobility test): wheat brown rust (PUCCRT). It counts as in vivo. The conditions noted are these: 1 ug/leaf. Put shortly:
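A 2 μl drop of formulated compound (EC blank, 110 ppm Triton X-100 water) was applied to a line 5 cm from the tip of primary leaves of "Yuma" wheat seedlings, 6 replicates. Inoculation with PUCCRT was done 1 day after or 3 days before application. Once disease was fully expressed on controls, the acropetal disease-free zone was measured as percent of line-to-tip distance.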

Setting [4] is: 24 h, read-out: Disease Control SEPTTR 1DP.
[5] abbreviates: 72 h, read-out: Disease Control SEPTTR 3DC.
Setting [6] is: 24 h, read-out: Disease Control PUCCRT 1DP.
[7] abbreviates: 72 h, read-out: Disease Control PUCCRT 3DC.
Where [8] appears, read: 24 h, 1 Day Protectant Mobility, read-out: Dropline Mobility Test PUCCRT 1DPM.
Setting [9] is: 72 h, 3 Day Curative Mobility, read-out: Dropline Mobility Test PUCCRT 3DCM.
Setting [10] is: 24 h, 100 ppm, 1 Day Protectant, wheat, read-out: Disease Control SEPTTR 1DP.
Setting [11] is: 72 h, 100 ppm, 3 Day Curative, wheat, read-out: Disease Control SEPTTR 3DC.
Setting [12] is: 24 h, 100 ppm, 1 Day Protectant, wheat, read-out: Disease Control PUCCRT 1DP.
Where [13] appears, read: 72 h, 100 ppm, 3 Day Curative, wheat, read-out: Disease Control PUCCRT 3DC.

On to `COc1ccnc(C(=O)N[C@H]2COC[C@H](OCC(C)C)[C@@H](Oc3ccccc3)[C@H](C)OC2=O)c1O` [Compound 82, 3-hydroxy-N-((3S,7S,8S,9S)-7-isobutoxy-9-methyl-2-oxo-8-phenoxy-1,5-dioxonan-3-yl)-4-methoxypicolinamide], for which the melting point lay in the range of 117 to 119 °C. Also, the pest or weed control at 100 ppm in data set [1] (setting [4]) fell in the range of 80 to 100%. In addition, the pest or weed control at 100 ppm in data set [1] (setting [5]) was in the range of 0 to 80%. For the same molecule, in data set [2] (setting [6]), the pest or weed control at 100 ppm lay within 80 to 100%. In addition, the pest or weed control at 100 ppm in data set [2] (setting [7]) is 80 to 100%. In addition, the pest or weed control at 1 µg/leaf in data set [3] (setting [8]) fell in the range of 80 to 100%. For the same molecule, the pest or weed control at 1 µg/leaf in data set [3] (setting [9]) lay within 0 to 80%.

With `COc1ccnc(C(=O)N[C@H]2COC[C@H](OCc3ccccc3)[C@@H](OCc3ccccc3)[C@H](C)OC2=O)c1O` [Compound 11, N-((3S,7S,8S,9S)-7,8-bis(benzyloxy)-9-methyl-2-oxo-1,5-dioxonan-3-yl)-3-hydroxy-4-methoxypicolinamide], the melting point was 144 to 146 °C. In addition, the pest or weed control at 100 ppm in data set [1] (setting [10]) lay in the range of 80 to 100%. The pest or weed control at 100 ppm in data set [1] (setting [11]) lay in the range of 0 to 80%. Also, in data set [2] (setting [12]), the pest or weed control at 100 ppm lay in the range of 80 to 100%. In data set [2] (setting [13]), the pest or weed control at 100 ppm was in the range of 80 to 100%. Further, the pest or weed control at 1 µg/leaf in data set [3] (setting [8]) lay in the range of 0 to 80%. For the same molecule, the pest or weed control at 1 µg/leaf in data set [3] (setting [9]) is 0 to 80%.

`CCCCO[C@H]1COC[C@H](NC(=O)c2nccc(OC)c2O)C(=O)O[C@@H](C)[C@@H]1OCCOC` [Compound 52, N-((3S,7S,8S,9S)-7-butoxy-8-(2-methoxyethoxy)-9-methyl-2-oxo-1,5-dioxonan-3-yl)-3-hydroxy-4-methoxypicolinamide] returned a melting point of 75 to 77 °C. For the same molecule, the pest or weed control at 100 ppm in data set [1] (setting [4]) lay within 0 to 80%. The pest or weed control at 100 ppm in data set [1] (setting [5]) lay within 0 to 80%. In data set [2] (setting [7]), the pest or weed control at 100 ppm is 80 to 100%.

`COc1ccnc(C(=O)N[C@H]2COC[C@H](OCC3CC3)[C@@H](OCC3CC3)[C@H](C)OC2=O)c1O` [Compound 209] had a melting point of 114 to 117 °C. For the same molecule, the pest or weed control at 100 ppm in data set [1] (setting [11]) was 0 to 80%. The pest or weed control at 100 ppm in data set [2] (setting [12]) was 0 to 80%. Moreover, in data set [2] (setting [13]), the pest or weed control at 100 ppm fell in the range of 0 to 80%.

For `COc1ccnc(C(=O)N[C@@H]2COC[C@H](OCC(C)C)[C@@H](OCC(C)C)COC2=O)c1O` [Compound 10], the melting point was in the range of 92 to 97 °C. The pest or weed control at 100 ppm in data set [1] (setting [10]) was 0 to 80%. Also, the pest or weed control at 100 ppm in data set [1] (setting [11]) is 0 to 80%. Also, the pest or weed control at 100 ppm in data set [2] (setting [12]) is 0 to 80%. In addition, the pest or weed control at 100 ppm in data set [2] (setting [13]) lay in the range of 0 to 80%.

Molecule `COc1ccnc(C(=O)N[C@H]2COC[C@H](OC(=O)C(C)C)[C@@H](OC(=O)C(C)C)[C@H](C)OC2=O)c1O` [Compound 56, (3S,7S,8S,9S)-3-(3-hydroxy-4-methoxypicolinamido)-9-methyl-2-oxo-1,5-dioxonane-7,8-diyl bis(2-methylpropanoate)] gave a melting point of 111 to 113 °C. Further, the pest or weed control at 100 ppm in data set [1] (setting [4]) lay within 0 to 80%. Besides, the pest or weed control at 100 ppm in data set [1] (setting [5]) lay within 80 to 100%. The pest or weed control at 100 ppm in data set [2] (setting [6]) is 80 to 100%. Besides, the pest or weed control at 100 ppm in data set [2] (setting [7]) was in the range of 80 to 100%.

`CCCCO[C@H]1[C@H](C)OC(=O)[C@@H](NC(=O)c2nccc(OC)c2O)COC[C@@H]1OCc1ccccc1` [Compound 32, N-((3S,7S,8S,9S)-7-(benzyloxy)-8-butoxy-9-methyl-2-oxo-1,5-dioxonan-3-yl)-3-hydroxy-4-methoxypicolinamide] returned a melting point of 105 to 107 °C. In addition, the pest or weed control at 100 ppm in data set [1] (setting [10]) lay in the range of 80 to 100%. In addition, in data set [1] (setting [11]), the pest or weed control at 100 ppm lay within 0 to 80%. Moreover, the pest or weed control at 100 ppm in data set [2] (setting [12]) lay in the range of 80 to 100%. The pest or weed control at 100 ppm in data set [2] (setting [13]) was in the range of 80 to 100%.

In the case of `C=CCO[C@H]1[C@H](C)OC(=O)[C@@H](NC(=O)c2nccc(OC)c2O)COC[C@@H]1OCCCC` [Compound 43, N-((3S,7S,8S,9S)-8-(allyloxy)-7-butoxy-9-methyl-2-oxo-1,5-dioxonan-3-yl)-3-hydroxy-4-methoxypicolinamide], the melting point was in the range of 101 to 103 °C. Moreover, the pest or weed control at 100 ppm in data set [1] (setting [10]) fell in the range of 80 to 100%. In addition, the pest or weed control at 100 ppm in data set [1] (setting [11]) is 0 to 80%. The pest or weed control at 100 ppm in data set [2] (setting [12]) lay in the range of 80 to 100%. Besides, the pest or weed control at 100 ppm in data set [2] (setting [13]) lay within 80 to 100%.

For the molecule `COc1ccnc(C(=O)N[C@H]2COC[C@H](OC)[C@@H](OC)[C@H](C)OC2=O)c1O` [Compound 63, N-((3S,7S,8S,9S)-7,8-dimethoxy-9-methyl-2-oxo-1,5-dioxonan-3-yl)-3-hydroxy-4-methoxypicolinamide], the melting point lay within 165 to 167 °C. The pest or weed control at 100 ppm in data set [1] (setting [11]) fell in the range of 0 to 80%. Further, the pest or weed control at 1 µg/leaf in data set [3] (setting [8]) fell in the range of 0 to 80%.

As for `COc1ccnc(C(=O)N[C@H]2COC[C@H](OCC(C)C)[C@@H](OCC(C)C)COC2=O)c1OCOC(C)=O` [Compound 13], the melting point was 58 to 64 °C. For the same molecule, the pest or weed control at 100 ppm in data set [1] (setting [10]) fell in the range of 80 to 100%. The pest or weed control at 100 ppm in data set [2] (setting [12]) was 80 to 100%. Besides, the pest or weed control at 100 ppm in data set [2] (setting [13]) was 80 to 100%.

`CCC(C)(C)O[C@H]1COC[C@H](NC(=O)c2nccc(OC)c2O)C(=O)O[C@@H](C)[C@@H]1OCC(C)C` [Compound 71, 3-hydroxy-N-((3S,7S,8S,9S)-8-isobutoxy-9-methyl-2-oxo-7-(tert-pentyloxy)-1,5-dioxonan-3-yl)-4-methoxypicolinamide] displayed a melting point of 138 to 140 °C. Further, the pest or weed control at 100 ppm in data set [1] (setting [10]) fell in the range of 80 to 100%. Further, the pest or weed control at 100 ppm in data set [1] (setting [11]) was in the range of 0 to 80%. The pest or weed control at 100 ppm in data set [2] (setting [12]) lay within 80 to 100%. Moreover, in data set [2] (setting [13]), the pest or weed control at 100 ppm lay within 0 to 80%.

As to `CCCCO[C@H]1COC[C@H](NC(=O)c2nccc(OC)c2O)C(=O)O[C@@H](C)[C@@H]1OCC(C)(C)Cl` [Compound 87, N-((3S,7S,8S,9S)-7-butoxy-8-(2-chloro-2-methylpropoxy)-9-methyl-2-oxo-1,5-dioxonan-3-yl)-3-hydroxy-4-methoxypicolinamide], the melting point lay within 115 to 117 °C. In addition, the pest or weed control at 1 µg/leaf in data set [3] (setting [8]) fell in the range of 0 to 80%. In data set [3] (setting [9]), the pest or weed control at 1 µg/leaf is 80 to 100%.

In the case of `COc1ccnc(C(=O)N[C@H]2COC[C@H](OCC3CC3)[C@@H](OCC3CC3)[C@H](C)OC2=O)c1OC(C)=O` [Compound 232], the melting point lay within 54 to 60 °C. In data set [1] (setting [10]), the pest or weed control at 100 ppm was in the range of 80 to 100%. Moreover, the pest or weed control at 100 ppm in data set [1] (setting [11]) is 0 to 80%. In addition, the pest or weed control at 100 ppm in data set [2] (setting [12]) fell in the range of 80 to 100%. The pest or weed control at 100 ppm in data set [2] (setting [13]) is 80 to 100%.

Turning to `CCCCO[C@H]1COC[C@H](NC(=O)c2nccc(OC)c2O)C(=O)O[C@@H](C)[C@@H]1OCC(F)F` [Compound 53, N-((3S,7S,8S,9S)-7-butoxy-8-(2,2-difluoroethoxy)-9-methyl-2-oxo-1,5-dioxonan-3-yl)-3-hydroxy-4-methoxypicolinamide], the melting point fell in the range of 127 to 129 °C. In addition, the pest or weed control at 100 ppm in data set [1] (setting [4]) fell in the range of 0 to 80%. The pest or weed control at 100 ppm in data set [1] (setting [5]) is 0 to 80%. In addition, in data set [2] (setting [6]), the pest or weed control at 100 ppm was in the range of 80 to 100%. In data set [2] (setting [7]), the pest or weed control at 100 ppm is 80 to 100%.

Molecule `CCCCO[C@H]1COC[C@H](NC(=O)c2nccc(OC)c2O)C(=O)O[C@@H](C)[C@@H]1OCc1ccccc1` [Compound 33, N-((3S,7S,8S,9S)-8-(benzyloxy)-7-butoxy-9-methyl-2-oxo-1,5-dioxonan-3-yl)-3-hydroxy-4-methoxypicolinamide] gave a melting point of 117 to 119 °C. In addition, the pest or weed control at 100 ppm in data set [1] (setting [4]) was in the range of 80 to 100%. The pest or weed control at 100 ppm in data set [1] (setting [5]) was 0 to 80%. Further, the pest or weed control at 100 ppm in data set [2] (setting [6]) was in the range of 80 to 100%. Further, in data set [2] (setting [7]), the pest or weed control at 100 ppm fell in the range of 80 to 100%.

Values taken from patent US9144239B2, “Macrocyclic picolinamides as fungicides” (DOW AGROSCIENCES LLC, priority 2012, dated 2015).
